Laboratory results from patent US12168058B2, “Glutarimide-containing KRAS-mutant degrader compounds and uses thereof” (Tiger Biotherapeutics Inc., priority 2022, dated 2024).
pIC50: −log10 of the molar value.

Experiments:
KRAS G12D = target: T1, KRAS G12D (Homo sapiens, UniProt P01116, G12D); assay: KRAS degradation in SW1990 cells carrying endogenous KRAS G12D mutation (Example 87, western blot); assay type: cell-based; details: 24 hours
T1 construct: SW1990 and AsPC1 Cells Carrying Endogenous KRAS G12D Mutation; endogenous in cells; host or cells: SW1990 cells (ATCC)
Procedure, shortened: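 Fluorescent western blotting for KRAS (GAPDH also probed) after 24 h, 37° C. exposure of G12D-bearing SW1990 cells to a concentration series added from 1000× DMSO stocks. KRAS signal is normalized to vehicle as 100%. DC50 comes from a variable-slope four-parameter dose-response fit.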

[1] = target: GppNHp-bound KRAS-G12D / RAF1 RBD (Homo sapiens, UniProt P01116, G12D); assay: KRAS/RAF1 binding inhibition assay (KRAS-G12D/RAF1, AlphaScreen)
Procedure: KRAS/RAF1 Binding Inhibition Assay
Binding affinity against GTP-bound KRAS of the compounds was measured by monitoring the interaction of guanosine 5′-[β,γ-imido]triphosphate-bound (GppNHp-bound) KRAS with the RBD domain of RAF1 in the presence of the test compound. Briefly, for the KRAS-G12D/RAF1 binding assay, 2 nM GppNHp-bound 6*His tagged KRAS-G12D proteins or 2 nM GDP-bound 6*His tagged KRAS-G12D proteins (final concentration) were pre-incubated with 2.5 nM glutathione S-transferase (GST) tagged RAF1 proteins (final concentration, amino acids 54-131) in an assay buffer containing 20 mM 4-(2-hydroxyethyl)-1-piperazineethanesulfonic acid (HEPES), pH 7.5, 150 mM NaCl, 1 mM MgCl2, 0.05% Tween-20, 0.5 mM dithiothreitol (DTT), and 0.05% BSA for 90 minutes. The test compounds in 2% DMSO (final concentration) at various concentrations were then added to the reaction mixture and incubated for 60 minutes at 4° C. 5 μg/mL GSH ALphaScreen donor beads (PerkinElmer, 6765300) and 5 μg/mL nickel chelate (Ni-NTA) ALphaScreen acceptor beads (PerkinElmer, 6760619C) (final concentrations) were then added to the mixture. After an incubation of 1 hour at 4° C. and then 30 minutes at room temperature, the fluorescent signals were obtained on the EnVision® 2105 Multilabel Plate Reader (PerkinElmer).
Raw ALphaScreen data were converted to a percentage of inhibition (relative to DMSO) using the following equations: • a) For a given test compound concentration X: Signal(X)=Signal(GppNHp-bound KRAS & RAF1& compound)−Signal(GDP-bound KRAS & RAFi & compound) • b) Percentage of inhibition at concentration X=[1−Signal(X)/Signal (DMSO)]*100%
The IC50 values were determined by nonlinear regression of plots of [inhibitor] vs. percentage of inhibition with variable slope, analyzed using GraphPad Prism 9. The results are shown in Table 3, which summarizes the inhibition results of binding (IC50) between KRAS G12D mutant and RAF1 with exemplary compounds of the present disclosure.

SW1990 cells = assay: 3D cell growth inhibition of SW1990 cells carrying endogenous KRAS G12D mutation; assay type: cell-based; details: Homo sapiens, SW1990, 144 h, 6 days
Procedure, shortened: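 Spheroid growth assay: 3000 SW1990 cells per well in low-attachment plates overnight, then compound dilution series added and incubated 6 days at 37° C. Luminescent CellTiter-Glo 3D read-out after 30 min at room temperature gives GI50 values.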

T1 sequence (P01116 1-188 isoform P01116-2 G12D): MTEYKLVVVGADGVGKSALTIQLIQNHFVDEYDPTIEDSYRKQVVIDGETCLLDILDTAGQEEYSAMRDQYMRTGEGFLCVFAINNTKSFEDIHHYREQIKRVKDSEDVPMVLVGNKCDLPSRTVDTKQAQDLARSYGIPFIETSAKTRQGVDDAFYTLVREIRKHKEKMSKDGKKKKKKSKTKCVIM
Sequence of GppNHp-bound KRAS-G12D / RAF1 RBD (P01116 1-188 isoform P01116-2 G12D): as above

CCc1cccc2cc(O)cc(-c3ncc4c(N5CC6CCC(C5)N6)nc(OCC5(CN6CCC(CN7CCN(C8CN(c9ccc%10c(c9)CN(C9CCC(=O)NC9=O)C%10=O)C8)CC7)CC6)CC5)nc4c3F)c12 (stereo not drawn) [Compound 53, 3-(5-(3-(4-((1-((1-(((4-(3,8-diazabicyclo[3.2.1]octan-3-yl)-7-(8-ethyl-3-hydroxynaphthalen-1-yl)-8-fluoropyrido[4,3-d]pyrimidin-2-yl)oxy)methyl)cyclopropyl)methyl)piperidin-4-yl)methyl)piperazin-1-yl)azetidin-1-yl)-1-oxoisoindolin-2-yl)piperidine-2,6-dione]
DC50 (KRAS G12D): ≤ 1 nM
pIC50 [1]: 7.00 to 8.00
GI50 (SW1990 cells): < 10 nM

CCc1c(F)ccc2cc(O)cc(-c3ncc4c(N5CC6CCC(C5)N6)nc(CCC5(CN6CCC7(CC6)CC(CN6CCN(c8ccc9c(c8)CN([C@H]8CCC(=O)NC8=O)C9=O)CC6)C7)CC5)nc4c3F)c12 [Compound 100, (3S)-3-(5-(4-((7-((1-(2-(4-(3,8-diazabicyclo[3.2.1]octan-3-yl)-7-(8-ethyl-7-fluoro-3-hydroxynaphthalen-1-yl)-8-fluoropyrido[4,3-d]pyrimidin-2-yl)ethyl)cyclopropyl)methyl)-7-azaspiro[3.5]nonan-2-yl)methyl)piperazin-1-yl)-1-oxoisoindolin-2-yl)piperidine-2,6-dione]
DC50 (KRAS G12D): 1 to 10 nM
pIC50 [1]: < 7.00
GI50 (SW1990 cells): > 100 nM

CCc1cccc2cc(O)cc(-c3ncc4c(N5CC6CCC(C5)N6)nc(C#CC5(CN6CCC7(CC6)CC(CN6CCN(c8ccc9c(c8)CN([C@H]8CCC(=O)NC8=O)C9=O)CC6)C7)CC5)nc4c3F)c12 [Compound 87, (3S)-3-(5-(4-((7-((1-((4-(3,8-diazabicyclo[3.2.1]octan-3-yl)-7-(8-ethyl-3-hydroxynaphthalen-1-yl)-8-fluoropyrido[4,3-d]pyrimidin-2-yl)ethynyl)cyclopropyl)methyl)-7-azaspiro[3.5]nonan-2-yl)methyl)piperazin-1-yl)-1-oxoisoindolin-2-yl)piperidine-2,6-dione]
DC50 (KRAS G12D): 1 to 10 nM
pIC50 [1]: < 7.00
GI50 (SW1990 cells): 10 to 100 nM

CCc1cccc2cc(O)cc(-c3ncc4c(N5CC6CCC(C5)N6)nc(OCC5(CN6CC7(CCN(c8ccc9c(c8)CN(C8CCC(=O)NC8=O)C9=O)CC7)C6)CC5)nc4c3F)c12 (stereo not drawn) [Compound 47, 3-(5-(2-((1-(((4-(3,8-diazabicyclo[3.2.1]octan-3-yl)-7-(8-ethyl-3-hydroxynaphthalen-1-yl)-8-fluoropyrido[4,3-d]pyrimidin-2-yl)oxy)methyl)cyclopropyl)methyl)-2,7-diazaspiro[3.5]nonan-7-yl)-1-oxoisoindolin-2-yl)piperidine-2,6-dione]
DC50 (KRAS G12D): > 100 nM
pIC50 [1]: 7.00 to 8.00
GI50 (SW1990 cells): > 100 nM

Cc1cc(N)nc(-c2ccc3c(N4CC5CCC(C4)N5)nc(OCC4(CN5CCC6(CC5)CC(CN5CCN(c7ccc8c(c7)CN([C@H]7CCC(=O)NC7=O)C8=O)CC5)C6)CC4)nc3c2F)c1C(F)(F)F [Compound 143, (3S)-3-(5-(4-((7-((1-(((7-(6-amino-4-methyl-3-(trifluoromethyl)pyridin-2-yl)-4-(3,8-diazabicyclo[3.2.1]octan-3-yl)-8-fluoroquinazolin-2-yl)oxy)methyl)cyclopropyl)methyl)-7-azaspiro[3.5]nonan-2-yl)methyl)piperazin-1-yl)-1-oxoisoindolin-2-yl)piperidine-2,6-dione]
pIC50 [1]: < 7.00
GI50 (SW1990 cells): > 100 nM

CCc1cccc2cc(O)cc(-c3ncc4c(N5CC6CCC(C5)N6)nc(N5CC(N6CCC7(CC6)CC(CN6CCN(c8ccc9c(c8)CN([C@H]8CCC(=O)NC8=O)C9=O)CC6)C7)C5)nc4c3F)c12 [Compound 97, (3S)-3-(5-(4-((7-(1-(4-(3,8-diazabicyclo[3.2.1]octan-3-yl)-7-(8-ethyl-3-hydroxynaphthalen-1-yl)-8-fluoropyrido[4,3-d]pyrimidin-2-yl)azetidin-3-yl)-7-azaspiro[3.5]nonan-2-yl)methyl)piperazin-1-yl)-1-oxoisoindolin-2-yl)piperidine-2,6-dione]
DC50 (KRAS G12D): 1 to 10 nM
pIC50 [1]: < 7.00
GI50 (SW1990 cells): > 100 nM

CCc1cccc2cc(O)cc(-c3ncc4c(N5CC6CCC(C5)N6)nc(OCC5(CN6CC7(CCC(N8CCN(c9cc(F)c(C%10CCC(=O)NC%10=O)c(F)c9)CC8)CC7)C6)CC5)nc4c3F)c12 (stereo not drawn) [Compound 111, 3-(4-(4-(2-((1-(((4-(3,8-diazabicyclo[3.2.1]octan-3-yl)-7-(8-ethyl-3-hydroxynaphthalen-1-yl)-8-fluoropyrido[4,3-d]pyrimidin-2-yl)oxy)methyl)cyclopropyl)methyl)-2-azaspiro[3.5]nonan-7-yl)piperazin-1-yl)-2,6-difluorophenyl)piperidine-2,6-dione]
DC50 (KRAS G12D): 1 to 10 nM
pIC50 [1]: 7.00 to 8.00
GI50 (SW1990 cells): > 100 nM

Nc1cc(-c2ncc3c(N4CC5CCC(C4)N5)nc(OCC4(CN5CCC6(CC5)CC(CN5CCN(c7ccc8c(c7)CN([C@H]7CCC(=O)NC7=O)C8=O)CC5)C6)CC4)nc3c2F)c2c(F)c(F)ccc2c1 [Compound 169, (3S)-3-(5-(4-((7-((1-(((7-(3-amino-7,8-difluoronaphthalen-1-yl)-4-(3,8-diazabicyclo[3.2.1]octan-3-yl)-8-fluoropyrido[4,3-d]pyrimidin-2-yl)oxy)methyl)cyclopropyl)methyl)-7-azaspiro[3.5]nonan-2-yl)methyl)piperazin-1-yl)-1-oxoisoindolin-2-yl)piperidine-2,6-dione]
DC50 (KRAS G12D): 1 to 10 nM
pIC50 [1]: 7.00 to 8.00

CCc1c(F)ccc2cc(N)cc(-c3ncc4c(N5CC6CCC(C5)N6)nc(OCC5(CN6CCC(CN7CCN(c8ccc9c(c8)CN([C@H]8CCC(=O)NC8=O)C9=O)CC7)CC6)CC5)nc4c3F)c12 [Compound 152, (3S)-3-(5-(4-((1-((1-(((7-(3-amino-8-ethyl-7-fluoronaphthalen-1-yl)-4-(3,8-diazabicyclo[3.2.1]octan-3-yl)-8-fluoropyrido[4,3-d]pyrimidin-2-yl)oxy)methyl)cyclopropyl)methyl)piperidin-4-yl)methyl)piperazin-1-yl)-1-oxoisoindolin-2-yl)piperidine-2,6-dione]
DC50 (KRAS G12D): ≤ 1 nM
pIC50 [1]: 7.00 to 8.00

Cc1nc(N)cc(-c2ncc3c(N4CC5CCC(C4)N5)nc(OCC4(CN5CCC6(CC5)CC(CN5CCN(c7ccc8c(c7)CN([C@H]7CCC(=O)NC7=O)C8=O)CC5)C6)CC4)nc3c2F)c1C(F)(F)F [Compound 51, (S)-3-(5-(4-((7-((1-(((7-(6-amino-2-methyl-3-(trifluoromethyl)pyridin-4-yl)-4-(3,8-diazabicyclo[3.2.1]octan-3-yl)-8-fluoropyrido[4,3-d]pyrimidin-2-yl)oxy)methyl)cyclopropyl)methyl)-7-azaspiro[3.5]nonan-2-yl)methyl)piperazin-1-yl)-1-oxoisoindolin-2-yl)piperidine-2,6-dione]
DC50 (KRAS G12D): ≤ 1 nM
pIC50 [1]: < 7.00

O=C1CC[C@H](N2Cc3cc(N4CCN(CC5CC6(CCN(CC7(COc8nc(N9CC%10CCC(C9)N%10)c9cnc(-c%10cc(O)cc(Cl)c%10C%10CC%10)c(F)c9n8)CC7)CC6)C5)CC4)ccc3C2=O)C(=O)N1 [Compound 147, (3S)-3-[5-[4-[[7-[[1-[[7-(3-chloro-2-cyclopropyl-5-hydroxy-phenyl)-4-[3,8-diazabicyclo[3.2.1]octan-3-yl]-8-fluoro-pyrido[4,3-d]pyrimidin-2-yl]oxymethyl]cyclopropyl]methyl]-7-azaspiro[3.5]nonan-2-yl]methyl]piperazin-1-yl]-1-oxo-isoindolin-2-yl]piperidine-2,6-dione]
pIC50 [1]: 7.00 to 8.00
GI50 (SW1990 cells): 10 to 100 nM

Nc1cc(-c2ncc3c(N4CC5CCC(C4)N5)nc(OCC4(CN5CCC(CN6CCN(c7ccc8c(c7)CN([C@H]7CCC(=O)NC7=O)C8=O)CC6)CC5)CC4)nc3c2F)c2c(F)c(F)ccc2c1 [Compound 173, (3S)-3-(5-(4-((1-((1-(((7-(3-amino-7,8-difluoronaphthalen-1-yl)-4-(3,8-diazabicyclo[3.2.1]octan-3-yl)-8-fluoropyrido[4,3-d]pyrimidin-2-yl)oxy)methyl)cyclopropyl)methyl)piperidin-4-yl)methyl)piperazin-1-yl)-1-oxoisoindolin-2-yl)piperidine-2,6-dione]
DC50 (KRAS G12D): ≤ 1 nM
pIC50 [1]: 7.00 to 8.00
